The source of these data is ChEMBL document CHEMBL1777708, “An expeditious access to 5-pyrimidinol derivatives from cyclic methylglyoxal diadducts, formation of argpyrimidines under physiological conditions and discovery of new CFTR inhibitors” (Eur J Med Chem, 2011).

One may read the pKa as the pH at which an ionisable group is half protonated. Higher therefore signals a group that holds its proton tightly.

The source made the active and inactive calls. The calls are words filed in the database; no cut-off is given here.

The nature of series [1]: Dissociation constant, pKa of the compound by spectrophotometry. Type of series: physicochemical.
Series [2] deals with Cystic fibrosis transmembrane conductance regulator (Homo sapiens) (UniProt P13569). Kind of series: Inhibition of wild type CFTR expressed in CHO cells by [125I]iodide efflux assay. Type of series: cell-based.
Chain of Cystic fibrosis transmembrane conductance regulator (Homo sapiens) (P13569 whole entry, looked up): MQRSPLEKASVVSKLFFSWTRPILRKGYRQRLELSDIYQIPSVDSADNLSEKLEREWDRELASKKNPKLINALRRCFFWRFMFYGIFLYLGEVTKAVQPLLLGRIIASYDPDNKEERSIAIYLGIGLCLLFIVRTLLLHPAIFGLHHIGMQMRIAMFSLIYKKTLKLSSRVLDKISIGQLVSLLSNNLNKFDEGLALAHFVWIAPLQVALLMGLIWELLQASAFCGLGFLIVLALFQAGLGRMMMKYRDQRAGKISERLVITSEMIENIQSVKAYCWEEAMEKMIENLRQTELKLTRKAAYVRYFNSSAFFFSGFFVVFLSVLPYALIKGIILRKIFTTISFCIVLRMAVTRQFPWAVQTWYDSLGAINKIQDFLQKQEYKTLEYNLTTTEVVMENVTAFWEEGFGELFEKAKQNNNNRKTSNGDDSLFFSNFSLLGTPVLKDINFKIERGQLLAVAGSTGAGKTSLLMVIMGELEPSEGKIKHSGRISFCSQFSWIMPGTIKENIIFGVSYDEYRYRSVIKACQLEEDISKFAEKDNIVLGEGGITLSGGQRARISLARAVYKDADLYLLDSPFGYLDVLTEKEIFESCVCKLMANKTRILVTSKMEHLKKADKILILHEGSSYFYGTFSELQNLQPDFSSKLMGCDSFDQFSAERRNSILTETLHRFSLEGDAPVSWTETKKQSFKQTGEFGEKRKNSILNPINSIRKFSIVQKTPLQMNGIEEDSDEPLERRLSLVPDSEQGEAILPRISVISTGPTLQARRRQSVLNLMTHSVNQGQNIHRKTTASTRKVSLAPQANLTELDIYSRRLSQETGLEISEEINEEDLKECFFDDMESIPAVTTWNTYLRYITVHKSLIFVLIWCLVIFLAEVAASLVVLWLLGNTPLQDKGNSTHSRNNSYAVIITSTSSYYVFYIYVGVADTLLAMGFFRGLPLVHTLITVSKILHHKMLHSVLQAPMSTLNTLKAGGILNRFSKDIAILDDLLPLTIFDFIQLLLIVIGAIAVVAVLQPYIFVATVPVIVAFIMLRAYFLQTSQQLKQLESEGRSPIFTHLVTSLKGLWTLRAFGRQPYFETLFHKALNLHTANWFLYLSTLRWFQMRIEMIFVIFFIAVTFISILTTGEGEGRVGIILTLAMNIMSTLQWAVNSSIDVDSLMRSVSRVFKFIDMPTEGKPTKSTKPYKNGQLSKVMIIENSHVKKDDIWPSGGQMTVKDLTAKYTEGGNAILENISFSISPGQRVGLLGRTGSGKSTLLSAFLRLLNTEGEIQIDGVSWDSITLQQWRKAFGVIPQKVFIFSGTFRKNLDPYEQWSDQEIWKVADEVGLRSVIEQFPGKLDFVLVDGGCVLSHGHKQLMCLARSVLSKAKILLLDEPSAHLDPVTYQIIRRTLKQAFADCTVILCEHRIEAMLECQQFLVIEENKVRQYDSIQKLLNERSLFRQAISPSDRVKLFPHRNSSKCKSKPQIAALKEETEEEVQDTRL

In series [1], `Cc1nc2c3ccccc3cc[n+]2c(C)c1[O-]` showed a pKa of 4.

On to `C[C@]1(C(=O)O)N=C2C=CC=CN2[C@](C)(O)[C@H]1O`, for which the inhibition result in series [2] is “inactive”.

On to `C[C@]1(C(=O)O)N=C2C=CC=CN2[C@](C)(O)[C@@H]1O`, for which the inhibition entry in series [2] is “inactive”.
